Assay results as given in ChEMBL document CHEMBL1158788, “Cytotoxic constituents of the fruit body of Daedalea dickisii” (J Nat Prod, 2005).
Active and inactive are the calls of the source. No cut-off for these calls is given here.

Assays:
Format in all cases: functional, cell-based
HCT-15 = assay: Cytotoxicity against human HCT15 cells after 48 hrs by MTT assay; conditions: HCT-15, 48 h
HL-60 [1] = assay: Cytotoxicity against human HL60 cells after 24 hrs by MTT assay; conditions: HL-60, 24 h
HL-60 [2] = assay: Induction of apoptosis in human HL60 cells assessed as DNA fragmentation at 35 uM after 8 hrs

| Structure (SMILES) | IC50 (HCT-15) | IC50 (HL-60 [1]) | Activity (HL-60 [2]) |
| --- | --- | --- | --- |
| C=C(CC[C@@H](C(=O)O[C@@H]1O[C@H](CO)[C@@H](O)[C@H](O)[C@H]1O)[C@H]1[C@H](OC(C)=O)C[C@@]2(C)c3ccc(C)c(CCC(=O)C(C)C)c3CC[C@]12C)C(C)C [DAEDALEASIDES A] | 32.3 µM | 27.9 µM | – |
| CC(C(=O)O)[C@@H](C)C(=O)C[C@@H](C)[C@H]1CC[C@@]2(C)C3=C(CC[C@]12C)[C@@]1(C)CC[C@@H](OC(=O)CC(=O)O)C(C)(C)[C@@H]1CC3 (some centres not stated) [CARBOXYACETYLQUERCINIC ACID] | 155 µM | 45.2 µM | – |
| C=C(CC[C@@H](C(=O)O[C@@H]1O[C@H](CO)[C@@H](O)[C@H](O)[C@H]1O)[C@H]1[C@H](OC(C)=O)C[C@@]2(C)C3=CC[C@H]4C(C)(C)C(=O)CC[C@]4(C)C3=CC[C@]12C)C(C)C [DAEDALEASIDE B] | 55 µM | 9.4 µM | Active |
| COc1cc([C@@H]2c3cc4c(cc3[C@@H](O[C@@H]3O[C@@H]5CO[C@@H](C)O[C@H]5[C@H](O)[C@H]3O)[C@H]3COC(=O)[C@H]23)OCO4)cc(OC)c1O [ETOPOSIDE] | – | 25 µM | – |
| C=C(CC[C@@H](C(=O)O[C@@H]1O[C@H](CO)[C@@H](O)[C@H](O)[C@H]1O)[C@H]1[C@H](OC(C)=O)C[C@@]2(C)C3=C(CC[C@]12C)[C@@]1(C)CCC(=O)C(C)(C)[C@@H]1CC3)C(C)C [DAEDALEASIDE D] | 60 µM | 14 µM | Active |
| C=C(CC[C@@H](C(=O)O[C@@H]1O[C@H](COC(C)=O)[C@@H](O)[C@H](O)[C@H]1O)[C@H]1[C@H](OC(C)=O)C[C@@]2(C)C3=CC[C@H]4C(C)(C)C(=O)CC[C@]4(C)C3=CC[C@]12C)C(C)C [DAEDALEASIDE C] | – | 12 µM | Active |
| C=C(CC[C@@H](C(=O)O[C@@H]1O[C@H](COC(C)=O)[C@@H](O)[C@H](O)[C@H]1O)[C@H]1[C@H](OC(C)=O)C[C@@]2(C)C3=C(CC[C@]12C)[C@@]1(C)CCC(=O)C(C)(C)[C@@H]1CC3)C(C)C [DAEDALEASIDE E] | – | 15 µM | Active |
| C=C(CC[C@@H](C(=O)O)[C@H]1[C@H](O)C[C@@]2(C)c3ccc(C)c(CCC(=O)C(C)C)c3CC[C@]12C)C(C)C [DAEDALEANIC ACID A] | 206 µM | 36 µM | – |
